Laboratory results taken from paper PMC6364417, “Kinase inhibitor library screening identifies synergistic drug combinations effective in sensitive and resistant melanoma cells” (Journal of Experimental & Clinical Cancer Research : CR, 2019).

Assays:
Assay in all cases: Kinase inhibitor library screening, PrestoBlue cell viability, 1 or 10 μM, 72 h
[1] = tested on: IGR37-GP cells (Dabrafenib-resistant)
[2] = tested on: 501Mel-XP cells (Vemurafenib-resistant); settings: 72 h
A375 cells (parental) = tested on: A375 cells (parental)
501Mel cells (parental) = settings: 72 h
Summary of the method: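 Treatment: 72 h with inhibitor. Detection: PrestoBlue, plate reader. Output: viability as % untreated control. Replicates: duplicate minimum. Lines: parental plus Vemurafenib- or Dabrafenib-resistant derivatives.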

[3] = tested on: IGR37-XP cells (Vemurafenib-resistant)
[4] = tested on: A375-XP cells (Vemurafenib-resistant)
[5] = tested on: A375-GP cells (Dabrafenib-resistant)
IGR37 cells (parental) = tested on: IGR37 cells (parental)
[6] = tested on: 501Mel-GP cells (Dabrafenib-resistant); settings: 72 h
[7] = IGR37 Parental, 10μΜ, 72 h, in %

CC(C)(C)Cn1c(N)nc2ccc(-c3[nH]c(C(C)(C)C)nc3-c3ccc(F)cc3)nc21 [LY2228820]
Cell viability in kinase inhibitor library screening, IGR37 GP, 10μΜ ([1]; IGR37 GP, 10μΜ, 72 h): 82.8%
Cell viability in kinase inhibitor library screening, IGR37 GP, 1μΜ ([1]; IGR37 GP, 1μΜ, 72 h, in %): 90.6
Cell viability in kinase inhibitor library screening, 501Mel XP, 1μΜ ([2]; 501Mel XP, 1μΜ, in %): 97.0
Cell viability in kinase inhibitor library screening, 501Mel XP, 10μΜ ([2]; 501Mel XP, 10μΜ, in %): 82.4
Cell viability in kinase inhibitor library screening, A375 Parental, 10μΜ (A375 cells (parental); A375 Parental, 10μΜ, 72 h): 91.0
Cell viability in kinase inhibitor library screening, A375 Parental, 1μΜ (A375 cells (parental); A375 Parental, 1μΜ, 72 h): 105.7
Cell viability in kinase inhibitor library screening, 501Mel Parental, 1μΜ (501Mel cells (parental); 501Mel Parental, 1μΜ, in %): 95.6
Cell viability in kinase inhibitor library screening, 501Mel Parental, 10μΜ (501Mel cells (parental); 501Mel Parental, 10μΜ, in %): 91.9
Cell viability in kinase inhibitor library screening, IGR37 XP, 10μΜ ([3]; IGR37 XP, 10μΜ, 72 h): 38.4%
Cell viability in kinase inhibitor library screening, IGR37 XP, 1μΜ ([3]; IGR37 XP, 1μΜ, 72 h, in %): 91.6
Cell viability in kinase inhibitor library screening, A375 XP, 1μΜ ([4]; A375 XP, 1μΜ, 72 h): 100.0
Cell viability in kinase inhibitor library screening, A375 XP, 10μΜ ([4]; A375 XP, 10μΜ, 72 h): 84.7
Cell viability in kinase inhibitor library screening, A375 GP, 1μΜ ([5]; A375 GP, 1μΜ, 72 h): 105.3
Cell viability in kinase inhibitor library screening, A375 GP, 10μΜ ([5]; A375 GP, 10μΜ, 72 h): 79.1
Cell viability in kinase inhibitor library screening, IGR37 Parental, 10μΜ (IGR37 cells (parental); [7]): 98.8
Cell viability in kinase inhibitor library screening, 501Mel GP, 1μΜ ([6]; 501Mel GP, 1μΜ, in %): 108.2

Cc1cnc(NC(=O)Nc2cc(Br)c(C)cc2OC[C@@H]2CNCCO2)cn1 [LY2603618 (IC-83)]
cell viability (kinase inhibitor library screening) ([1]; IGR37 GP, 1μΜ, 72 h): 73.8%
cell viability (kinase inhibitor library screening) ([1]; IGR37 GP, 10μΜ, 72 h): 67.9%
cell viability (kinase inhibitor library screening) ([2]; 501Mel XP, 1μΜ): 69.5%
cell viability (kinase inhibitor library screening) ([2]; 501Mel XP, 10μΜ): -0.8%
cell viability (kinase inhibitor library screening) (A375 cells (parental); A375 Parental, 10μΜ, 72 h): 15.4%
cell viability (kinase inhibitor library screening) (A375 cells (parental); A375 Parental, 1μΜ, 72 h): 86.3%
cell viability (kinase inhibitor library screening) (501Mel cells (parental); 501Mel Parental, 1μΜ): 84.2%
cell viability (kinase inhibitor library screening) (501Mel cells (parental); 501Mel Parental, 10μΜ): 2.1%
cell viability (kinase inhibitor library screening) ([3]; IGR37 XP, 1μΜ, 72 h): 52.7%
cell viability (kinase inhibitor library screening) ([3]; IGR37 XP, 10μΜ, 72 h): 26.7%
cell viability (kinase inhibitor library screening) ([4]; A375 XP, 1μΜ, 72 h): 87.2%
cell viability (kinase inhibitor library screening) ([4]; A375 XP, 10μΜ, 72 h): 15.7%
cell viability (kinase inhibitor library screening) ([5]; A375 GP, 10μΜ, 72 h): 11.5%
cell viability (kinase inhibitor library screening) (IGR37 cells (parental); IGR37 Parental, 1μΜ, 72 h): 81.7%
cell viability (kinase inhibitor library screening) (IGR37 cells (parental); IGR37 Parental, 10μΜ, 72 h): 37.5%
cell viability (kinase inhibitor library screening) ([6]; 501Mel GP, 1μΜ): 91.7%
cell viability (kinase inhibitor library screening) ([6]; 501Mel GP, 10μΜ): 4.4%

Cc1cc(Nc2cc(CN3CCOCC3)c3nc(C)c(Cc4ccc(Cl)cc4F)n3n2)n[nH]1 [LY2784544]
viability at 1 µM ([1]; Homo sapiens, IGR-37, 72 h, read-out: cell viability, IGR37 GP, 1μΜ): 90.3%
viability at 10 µM ([1]; Homo sapiens, IGR-37, 72 h, read-out: cell viability, IGR37 GP, 10μΜ): 53.2%
viability at 1 µM ([2]; Homo sapiens, read-out: cell viability, 501Mel XP, 1μΜ): 87.1%
viability at 10 µM ([2]; Homo sapiens, read-out: cell viability, 501Mel XP, 10μΜ): 27.9%
viability at 1 µM (A375 cells (parental); Homo sapiens, A-375, 72 h, read-out: cell viability, A375 Parental, 1μΜ): 94.9%
viability at 10 µM (A375 cells (parental); Homo sapiens, A-375, 72 h, read-out: cell viability, A375 Parental, 10μΜ): 28.1%
viability at 1 µM (501Mel cells (parental); Homo sapiens, read-out: cell viability, 501Mel Parental, 1μΜ): 89.9%
viability at 10 µM (501Mel cells (parental); Homo sapiens, read-out: cell viability, 501Mel Parental, 10μΜ): 67.3%
viability at 1 µM ([3]; Homo sapiens, IGR-37, 72 h, read-out: cell viability, IGR37 XP, 1μΜ): 91.6%
viability at 10 µM ([3]; Homo sapiens, IGR-37, 72 h, read-out: cell viability, IGR37 XP, 10μΜ): 17.9%
viability at 1 µM ([4]; Homo sapiens, A-375, 72 h, read-out: cell viability, A375 XP, 1μΜ): 102%
viability at 10 µM ([4]; Homo sapiens, A-375, 72 h, read-out: cell viability, A375 XP, 10μΜ): 35.9%
viability at 1 µM ([5]; Homo sapiens, A-375, 72 h, read-out: cell viability, A375 GP, 1μΜ): 101%
viability at 10 µM ([5]; Homo sapiens, A-375, 72 h, read-out: cell viability, A375 GP, 10μΜ): 26.9%
viability at 1 µM (IGR37 cells (parental); Homo sapiens, IGR-37, 72 h, read-out: cell viability, IGR37 Parental, 1μΜ): 99.2%
viability at 10 µM (IGR37 cells (parental); Homo sapiens, IGR-37, 72 h, read-out: cell viability, IGR37 Parental, 10μΜ): 87%
viability at 1 µM ([6]; Homo sapiens, read-out: cell viability, 501Mel GP, 1μΜ): 99.1%
viability at 10 µM ([6]; Homo sapiens, read-out: cell viability, 501Mel GP, 10μΜ): 49%

CS(=O)(=O)CCNCc1ccc(-c2ccc3ncnc(Nc4ccc(OCc5cccc(F)c5)c(Cl)c4)c3c2)o1.Cc1ccc(S(=O)(=O)O)cc1.Cc1ccc(S(=O)(=O)O)cc1 [Lapatinib Ditosylate (Tykerb)]
cell viability, IGR37 GP, 10μΜ ([1]; IGR37 GP, 10μΜ, 72 h): 14%
cell viability, 501Mel XP, 1μΜ ([2]; 501Mel XP, 1μΜ, in %): 94.1
cell viability, 501Mel XP, 10μΜ ([2]; 501Mel XP, 10μΜ, in %): -0.129
cell viability, A375 Parental, 10μΜ (A375 cells (parental); A375 Parental, 10μΜ, 72 h, in %): 78.4
cell viability, 501Mel Parental, 10μΜ (501Mel cells (parental); 501Mel Parental, 10μΜ, in %): 33.4
cell viability, IGR37 XP, 10μΜ ([3]; IGR37 XP, 10μΜ, 72 h): 1.6%
cell viability, A375 XP, 1μΜ ([4]; A375 XP, 1μΜ, 72 h, in %): 114.8
cell viability, A375 XP, 10μΜ ([4]; A375 XP, 10μΜ, 72 h, in %): 72.3
cell viability, A375 GP, 10μΜ ([5]; A375 GP, 10μΜ, 72 h, in %): 81.7
cell viability, IGR37 Parental, 10μΜ (IGR37 cells (parental); [7]): 92.3
cell viability, 501Mel GP, 10μΜ ([6]; 501Mel GP, 10μΜ, in %): 78.0
